# Measurements taken from US20070249559A1, “Hydrating Composition” (priority 2004, published 2007).
# What was measured:
# [1] = Body mass and body water compartments (bioimpedance) before and after 7-day supplementation; format: in vivo, human; conditions: for Change in extracellular water (ECW) post- vs pre-supplementation / Change in intracellular water (ICW) post- vs pre-supplementation / Change in total body water (TBW) post- vs pre-supplementation: bioimpedance; for Change in extracellular water (ECW) post- vs pre-supplementation / Change in intracellular water (ICW) post- vs pre-supplementation / Change in total body water (TBW) post- vs pre-supplementation / Change in body mass (BM) post- vs pre-supplementation: supplementation week; for Change in body mass (BM) post- vs pre-supplementation: well-trained cyclists, final supplement 5 hours prior
# Method: (§1) The experimental design and protocol are complicated and is best understood by reference to FIGS. 1 and 2. The study consisted of two supplementation regimens, each lasting 7 days and encompassing four cycle performance trials consisting of 40 min constant-load exercise at 63% WRmax followed by a 16.1 km (10 mile) time trial. Prior to the first of these experimental trials, familiarisation trials were completed until the variability of two consecutive trials was within 5%. Following this familiarisation period, subjects were matched for body mass (BM) and were randomised in a double blind fashion to either a Cr or a placebo (Pl) group. Subjects performed an exercise trial pre- and post-supplementation in both supplementation weeks. The first test was conducted at least 48 hours after each subject's final familiarisation trial. Each supplementation period started on the day after the first test and finished on the day of the second test.
# (§2) Cr supplementation consisted of 22.8 g·d^−1 of Cr.H2O (equivalent to 10 g Cr×2 daily) and 140 g of glucose polymer (70 g×2 daily) made up in 2 L of warm to hot water for 6 days. […] Each supplementation was made freshly prior to consumption in order to prevent any degradation of Cr to creatinine (Crn). The Pl supplement consisted of 170 g·d^−1 of glucose polymer (85 g×2 daily). During the first and third week of the experimental regimen, subjects in both groups received either 1 g glycerol (Gly) per·kg BM or an equivalent amount of Pl (sucrose solution) diluted in each supplement. In both post-supplementation trials (days 8 and 22) subjects consumed the appropriate supplement 5 hours prior to exercise. […] All supplements had similar taste, texture and appearance and were placed in generic water bottles to ensure double blind administration. On each of the experimental test days (i.e. days 1, 8, 15, 22) subjects ingested 500 ml of water 3 hours prior to exercise and a further 500 ml of water 1 hour prior to exercise to ensure subjects were adequately hydrated prior to all exercise trials (American College of Sports Medicine, 2000).
# (§3) Procedures. Subjects reported to the laboratory on the day of testing following a 3 hr fast and having refrained from alcohol, caffeine and strenuous exercise the day before. Upon arrival at the laboratory, height and nude BM were measured and body water compartments were estimated using a Bodystat Multiscan 5000 Bioimpedance analyser (Bodystat Ltd, Isle of Man) (Van Loan, 1990). This method allows TBW and ECW to be estimated; from these measurements ICW can also be deduced. The bioimpedance measurements were taken while the subjects lay comfortably in a supine position on a non-conductive surface with their arms and legs slightly abducted. Following the bioimpedance measurement, a flexible rectal thermistor was inserted 10 cm beyond the anal sphincter to measure rectal temperature (Tre), an index of core temperature (Tc) and a heart rate (HR) monitor (Polar Sports Tester, Polar Electro Oy, Kempele, Finland) was attached. The subject's right hand and forearm were immersed in water at 42-44° C. for 15 min in order to allow for arterialisation of the venous blood (Forster at al. 1972). Following this, a 21 G cannula was introduced into a superficial vein on the dorsal surface of the heated hand. The subject was transferred to the climatic chamber (ambient temperature 30±1° C. with a relative humidity of 70±2% and air velocity of approximately 1.8 m·sec^−1) and seated on the cycle ergometer for 5 min. During this period thermistors (C8600 10 channel microprocessor, Comark, Hertfordshire, UK) were attached to the subject's chest, tricep, thigh and calf for the determination of weighted mean skin temperature (Tskin) (Ramanthan, 1964). The subject remained seated on the cycle ergometer for a further 1 min while resting HR, Tre, Tskin were recorded and a blood sample (10 ml) obtained. The venous cannula was kept patent by a 10 ml infusion of isotonic saline between samples. […]
# [2] = Cycle exercise in the heat: 40 min constant load at 63% WRmax followed by 16.1 km time trial; format: in vivo, human; conditions: for Core temperature (Tc, rectal) during exercise post- vs pre-supplementation / Heart rate (HR) during exercise post- vs pre-supplementation: 30 C, 70% relative humidity; for RPE for breathlessness post- vs pre-supplementation / RPE for perceived leg fatigue post- vs pre-supplementation: Borg category scale; for Change in plasma volume (delta PV) during exercise post- vs pre-supplementation: calculated from Hb and PCV
# Method: as §1, §2, §3
# [3] = Side effects of the supplementation protocol; format: in vivo, human; conditions: 18 subjects
# Source text: as §2
# Side effects. […] 3 subjects from each group correctly identified the subject group and 2 subjects correctly identified the Gly supplementation week, while, all other subjects were unsure of the treatment they received.
# [4] = consumed with a substantial fluid intake; by reducing urinary volume; cited from earlier work
# [5] = bioimpedance estimate after supplementation
Compound,Increase in plasma volume (PV) ([1]; assuming 7.5% of the increase in TBW is plasma),"Increase in TBW (estimated, on average) [1, 5] [mL]","Part of TBW increase accounted for by increase in ICW [1, 5] [mL]",Change in extracellular water (ECW) post- vs pre-supplementation [1],Change in intracellular water (ICW) post- vs pre-supplementation [1],Change in total body water (TBW) post- vs pre-supplementation [1],Change in body mass (BM) post- vs pre-supplementation [1],"Core temperature (Tc, rectal) during exercise post- vs pre-supplementation [2]",Heart rate (HR) during exercise post- vs pre-supplementation [2],RPE for breathlessness post- vs pre-supplementation [2],RPE for perceived leg fatigue post- vs pre-supplementation [2],Change in plasma volume (delta PV) during exercise post- vs pre-supplementation [2],16.1 km time trial performance ([2]; post- vs pre-supplementation),"Part of TBW increase accounted for by increase in ECW [1, 5] [mL]",Side effects reported [3],Fluid expansion or retention above a fluid bolus alone [4] [mL]
"CN(CC(=O)O)C(=N)N [Cr, methyl guanidine acetic acid]",approximately 51 ml,680,500,increased significantly,increased significantly,increased significantly,increased significantly,significantly lower,significantly lower,Lower,Significantly lower,lower,no effect,,,
"OCC(O)CO [Gly, glycerol]",,600,,increased significantly,no significant increase,increased significantly,increased significantly,not significantly different,significantly lower,no such effect,no such effect,not significantly different,,400,only one report of gastrointestinal distress,~600
